Data from patent US20230241226A1, “COMPOUNDS FOR TARGETED DEGRADATION OF CARRIER PROTEINS AND USES THEREOF” (CeMM - Forschungszentrum für Molekulare Medizin GmbH, priority 2019, published 2023).

How the values were obtained:
[1] = system: Peripheral blood mononuclear cells (PBMCs); experiment: Cell viability assay (CellTiter-Glo), single dose, FIG. 10; format: cell-based, human; settings: patient samples; 75 nM d9A1-2 vs 7.5 µM EIPA; 72 hours
Protocol: FIG. 10: Viability assay Relative viability of Peripheral blood mononuclear cells (PBMCs) after single-dose treatment with the d9A1-2 molecule or ethyl-isopropyl amiloride (EIPA). PBMCs were isolated from healthy donors and patients with acute myeloid leukemia, multiple myeloma, B cell lymphoma and Hodgkin’s lymphoma, chronic lymphocytic leukeumia. Viability was assayed using the CellTiter-Glo assay, 72 hours post treatment.
Peripheral blood mononuclear cells (PBMCs) were isolated using Lymphoprep (Stem Cell Technologies) from healthy donors and patients with acute myeloid leukemia, multiple myeloma, B cell lymphoma, Hodgkin’s lymphoma, chronic lymphocytic leukeumia. For comparison of different samples, compounds were transferred on black 384-well plates using an acoustic liquid handler (Echo, Labcyte).
(§1) Cells were seeded in these plates at densities of 20,000 cells per well in RPMI media (Gibco), supplemented with 10% fetal calf serum (Gibco). Viability was measured after 72 hours using the CellTiter-Glo assay (Promega) on a plate reader (SpectraMax i3x, Molecular Probes). All measurements were done in technical quadruplicates. Toxicity achieved by treatment with d9A1-2 or ethyl-isopropyl amiloride (EIPA) (Sigma) was normalized to the reference controls. Dose response fitting curves were obtained and plotted using GraphPad Prism V8. Data is presented as mean +/- SD.

[2] = system: Peripheral blood mononuclear cells (PBMCs); experiment: Cellular viability assay (CellTiter-Glo), dose curve, FIG. 9; format: cell-based, human; settings: PBMCs of healthy donors and patients (AML, multiple myeloma, B cell lymphoma, Hodgkin's lymphoma, CLL), 72 hours
Protocol: Relative viability of Peripheral blood mononuclear cells (PBMCs) after treatment with the d9A1-2 molecule PBMCs were isolated from healthy donors and patients with acute myeloid leukemia, multiple myeloma, B cell lymphoma and Hodgkin’s lymphoma, chronic lymphocytic leukeumia and treated with a dose curve of d9A1-2. Viability was assayed using the CellTiter-Glo assay, 72 hours post treatment.
as §1, with “Peripheral blood mononuclear cells (PBMCs) were isolated using Lymphoprep (Stem Cell Technologies) from healthy donors and patients with acute myeloid leukemia, multiple myeloma, B cell lymphoma, Hodgkin’s lymphoma, chronic lymphocytic leukeumia. For comparison of different samples, compounds were transferred on black 384-well plates using an acoustic liquid handler (Echo, Labcyte). Cells” for “Cells”, “d9A1-2” for “d9A1-2 or ethyl-isopropyl amiloride (EIPA) (Sigma)”

[3] = biological target: T1, dTAG-HA SLC39A7 (Homo sapiens, UniProt Q92504+Q96SW2); experiment: Targeted degradation of dTAG-tagged SLC39A7 (western blot); format: cell-based; settings: HAP1, 0.5 µM, 24, 48 or 72 hours
T1 construct: expressed in transfected cells
Protocol: (C)HAP1 cells expressing dTAG-HA SLC1A5, 2A3, 30A9, 35B2, MTCH2, and 33A1 were treated for 24 hours with 0.5 µM of dTAG7 or dTAG13, as indicated. HAP1 cells expressing dTAG-HA SLC2A1 and 16A1 were treated for 24 hrs with 0.5 µM of dTAG7. HAP1 cell lines expressing dTAG-HA SLC39A7, dTAG-HA SLC4A4, and SLC7A3-dTAG-HA were treated for 48 hrs with 0.5 µM of dTAG13.
SLC1A5, SLC2A1, SLC2A3, SLC16A1, SLC38A1, SLC38A2 were obtained as gateway-compatible pENTR/pDONR vectors from the Harvard PlasmID Repository. SLC39A7 was obtained from Dharmacon, GE Healthcare. The following vectors were synthesized by Genescript: SLC4A4, SLC7A3, SLC38A9, SLC25A1, SLC9A1, SLC9A2, SLC9A3, SLC9A4, SLC9A5, SLC9A6, SLC9A7, SLC9A8, and SLC9B2. […]
For immunoblotting, whole cell extracts were prepared using RIPA lysis buffer (25 mM Tris/HCl pH 7.6, 150 mM NaCl, 1% NP-40, 1% sodium deoxycholate, 0.1% SDS, EDTA-free protease inhibitor (Roche) and phosphatase inhibitors 2+3 (Sigma- Aldrich)). […] Protein extracts were quantified and normalized using the BCA assay (Thermo Scientific). […]
SLCs were ectopically expressed as fusions to a mutated FKBP domain, also known as the dTAG system. […]

T1 sequence (Q92504 with tags, fused parts or gaps): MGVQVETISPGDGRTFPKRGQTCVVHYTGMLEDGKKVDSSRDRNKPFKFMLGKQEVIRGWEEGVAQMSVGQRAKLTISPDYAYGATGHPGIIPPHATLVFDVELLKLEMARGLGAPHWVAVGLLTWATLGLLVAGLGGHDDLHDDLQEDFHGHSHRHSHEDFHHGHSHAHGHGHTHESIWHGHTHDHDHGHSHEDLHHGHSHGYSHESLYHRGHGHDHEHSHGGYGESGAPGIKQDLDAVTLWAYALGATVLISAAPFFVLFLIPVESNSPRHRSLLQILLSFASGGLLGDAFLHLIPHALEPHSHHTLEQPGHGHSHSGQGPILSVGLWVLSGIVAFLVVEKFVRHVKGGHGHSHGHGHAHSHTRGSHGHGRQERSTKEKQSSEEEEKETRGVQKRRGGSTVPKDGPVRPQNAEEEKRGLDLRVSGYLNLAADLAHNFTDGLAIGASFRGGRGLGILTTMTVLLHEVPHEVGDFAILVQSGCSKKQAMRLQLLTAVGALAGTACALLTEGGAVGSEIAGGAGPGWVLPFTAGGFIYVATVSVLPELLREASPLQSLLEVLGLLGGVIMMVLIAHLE
T1 sequence (Q96SW2 whole entry): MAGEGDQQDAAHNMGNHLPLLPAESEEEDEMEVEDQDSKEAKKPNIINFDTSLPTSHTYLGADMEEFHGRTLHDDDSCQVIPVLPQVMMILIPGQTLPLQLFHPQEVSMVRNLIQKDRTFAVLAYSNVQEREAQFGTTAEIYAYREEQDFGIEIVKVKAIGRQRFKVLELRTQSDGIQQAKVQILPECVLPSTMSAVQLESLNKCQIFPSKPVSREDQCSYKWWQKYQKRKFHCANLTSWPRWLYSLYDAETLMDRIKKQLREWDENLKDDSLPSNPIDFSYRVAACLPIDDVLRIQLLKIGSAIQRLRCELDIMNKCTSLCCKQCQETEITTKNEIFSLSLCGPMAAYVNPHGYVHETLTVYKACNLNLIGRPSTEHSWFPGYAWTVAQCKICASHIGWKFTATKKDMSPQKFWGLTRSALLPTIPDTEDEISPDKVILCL
T1 sequence (Q16531 whole entry partner): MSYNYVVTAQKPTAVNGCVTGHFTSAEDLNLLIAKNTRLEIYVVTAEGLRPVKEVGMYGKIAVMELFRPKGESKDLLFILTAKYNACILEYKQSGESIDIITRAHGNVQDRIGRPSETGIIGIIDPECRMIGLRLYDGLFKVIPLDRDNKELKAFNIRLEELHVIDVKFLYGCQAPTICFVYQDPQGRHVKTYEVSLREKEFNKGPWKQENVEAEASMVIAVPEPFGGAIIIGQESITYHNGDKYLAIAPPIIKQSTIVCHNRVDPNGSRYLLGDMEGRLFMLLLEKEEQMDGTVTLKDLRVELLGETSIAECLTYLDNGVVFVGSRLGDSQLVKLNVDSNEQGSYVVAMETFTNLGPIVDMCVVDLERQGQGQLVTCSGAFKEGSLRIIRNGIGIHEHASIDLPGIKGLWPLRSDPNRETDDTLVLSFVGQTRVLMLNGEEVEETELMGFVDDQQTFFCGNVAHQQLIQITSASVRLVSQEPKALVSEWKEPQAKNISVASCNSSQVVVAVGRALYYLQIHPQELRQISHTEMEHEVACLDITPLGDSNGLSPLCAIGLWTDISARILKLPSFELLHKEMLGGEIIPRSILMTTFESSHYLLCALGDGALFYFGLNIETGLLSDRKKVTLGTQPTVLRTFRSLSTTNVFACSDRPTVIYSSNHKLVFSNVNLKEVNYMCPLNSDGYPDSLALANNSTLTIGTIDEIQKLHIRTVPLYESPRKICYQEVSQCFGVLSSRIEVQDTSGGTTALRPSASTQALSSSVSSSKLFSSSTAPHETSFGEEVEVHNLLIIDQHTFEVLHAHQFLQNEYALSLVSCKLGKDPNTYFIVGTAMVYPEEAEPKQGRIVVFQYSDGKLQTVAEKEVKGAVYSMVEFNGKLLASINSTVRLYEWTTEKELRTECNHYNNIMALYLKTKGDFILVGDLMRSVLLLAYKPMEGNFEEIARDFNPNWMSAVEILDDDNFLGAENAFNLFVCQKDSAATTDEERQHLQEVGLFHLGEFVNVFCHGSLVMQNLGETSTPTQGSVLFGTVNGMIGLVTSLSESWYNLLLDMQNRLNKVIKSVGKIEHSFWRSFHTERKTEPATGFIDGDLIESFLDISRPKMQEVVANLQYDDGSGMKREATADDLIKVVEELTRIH

reversibility of degradation of the target SLC [3] | SMILES | toxicity (relative viability) in patient PBMCs compared with EIPA [1] | toxicity (relative viability) in patient versus healthy donor PBMCs [2]
 | Cc1cc(-c2ccc(C(=O)NCCOCCOCCOCCOCCNc3cccc4c3C(=O)N(C3CCC(=O)NC3=O)C4=O)cc2N2CCC(c3[nH]cnc3C)CC2)ccc1F (stereo not drawn) [d9A1-2] | considerably more toxic than 7.5 µM EIPA | more toxic in patient samples, than in healthy donor samples
reversible degradation | CC[C@H](C(=O)N1CCCC[C@H]1C(=O)O[C@H](CCc1ccc(OC)c(OC)c1)c1ccccc1OCC(=O)NCCCOCCOCCOCCCNC(=O)COc1cccc2c1C(=O)N(C1CCC(=O)NC1=O)C2=O)c1cc(OC)c(OC)c(OC)c1 (stereo partly drawn) [dTAG7] |  | 
